# Values quoted from earlier work as cited in paper PMC5763161 (Molecular Therapy, 2017).
# Test system: dystrophin exon skipping
# Conditions: mdx mice
substance,measurement,value
ASSLNIA,delivery or exon-skipping levels when conjugated to a PMO,unable to increase
